# Measured values reported in patent US7097854B2, “Amino alcohol derivatives, process for their production and pharmaceutical preparations and reagents containing these compounds” (MediGene Oncology GmbH, priority 1996, dated 2006).
# Assays:
# HeLa cells = assay: Transfection with pCMV-CAT, CAT-Elisa, HeLa cells; type: cell-based, human; conditions: relative to DOTAP = 1, pCMV-CAT plasmid
# From the text: (§1) The testing of DOTAP or the compounds of the invention comprises transfection of the test cells, protein determination by means of the BCA method (Pierce) and carrying out a CAT Elisa and these are described here using DOTAP (Boehringer Mannheim) as an example. After ultrasonication the cationic lipid DOTAP forms unilamellar vesicles (liposomes) in aqueous solution which spontaneously form stable complexes with the DNA (pCMV-CAT). These complexes adhere to the cell surface, fuse with the cell membrane and pCMV-CAT is released into the cytoplasm. The transiently expressed CAT is detected in the cell lysate.
# HeLa, human cancer epithelial cell line from the cervix, ATCC CCL 2
# (§2) The composition of the test medium used for the respective cell line corresponds with that of the respective culture medium, only the content of FCS is reduced by 50% (only 5% FCS instead of 10%). […]
# (§3) The CAT (chloroamphenicol acetyl transferase)-Elisa serves to quantitatively determine the CAT expression in eukaryotic cells after transfection with a plasmid that contains CAT as the reporter gene. […] Anti-CAT-DIG is detected in the third step by a peroxidase-labelled antibody against digoxigenin (Anti-DIG-POD) and visualized in a subsequent substrate reaction. […]
# (§4) The microtitre plate is measured at 405 nm and a reference wavelength of 492 nm with an Elisa reader.
# Calu cells = assay: Transfection with pCMV-CAT, CAT-Elisa, Calu cells; type: cell-based, human; conditions: relative to DOTAP = 1, pCMV-CAT plasmid
# From the text: as §1
# CALU 1, human cancer epithelial cell line from the lung, ECACC 93120818 or another suitable test cell line
# as §2, §3, §4
SMILES,melting point [°C],relative transfection efficiency in a CAT-Assay (DOTAP = 1) (HeLa cells),relative transfection efficiency in a CAT-Assay (DOTAP = 1) (Calu cells)
CCCCCCCCCCCC(=O)OCCN(CCCNCCCN)CCOC(=O)CCCCCCCCCCC.Cl,245 to 246,–,–
"CCCCCCCCCCCCCC(=O)OCCN(CCOC(=O)CCCCCCCCCCCCC)CC1CCN(CCCN(C)C)CC1 [Example 34, Tetradecanoic acid-2-{(2-tetradecanoyloxy-ethyl)-[1-(3-dimethylamino-propyl)-piperidin-4-yl-methyl]-amino}-ethyl ester]",–,3.2,3.9
"CCCCCCCCCCCCCC(=O)OCCN(CCCCNCCCN)CCOC(=O)CCCCCCCCCCCCC [Example 60, Tetradecanoic acid-2-{[4-(3-amino-propylamino)-butyl]-(2-tetradecanoyloxy-ethyl)-amino}-ethyl ester]",–,3.2,3.4
